Laboratory results reported in the kinase profiling compilation of Christmann-Franck et al. (2016).

Experiments:
Assay in all cases: radiometric filter-binding kinase assay, Kinase HotSpot
Details in all cases: compound 0.5 µM; ATP 10 µM
ACVR1 (human) = ACVR1 (human) (UniProt Q04771)
BRSK1 (human) = BRSK1 (human) (UniProt Q8TDC3)
CAMK1 (human) = CAMK1 (human) (UniProt Q14012)
CAMK2D (human) = CAMK2D (human) (UniProt Q13557)
CDK5 CDK5R1 p25 (human) = CDK5 CDK5R1 p25 (human) (UniProt Q00535+Q15078)
CHUK (human) = CHUK (human) (UniProt O15111)
CSNK1G1 (human) = CSNK1G1 (human) (UniProt Q9HCP0)
CSNK2A1 (human) = CSNK2A1 (human) (UniProt P68400)
DAPK1 (human) = DAPK1 (human) (UniProt P53355)
DDR2 (human) = DDR2 (human) (UniProt Q16832)
EPHA1 (human) = EPHA1 (human) (UniProt P21709)
EPHA2 (human) = EPHA2 (human) (UniProt P29317)
EPHA3 (human) = EPHA3 (human) (UniProt P29320)
EPHA7 (human) = EPHA7 (human) (UniProt Q15375)
EPHB1 (human) = EPHB1 (human) (UniProt P54762)
FER (human) = FER (human) (UniProt P16591)
GRK6 (human) = GRK6 (human) (UniProt P43250)
HIPK1 (human) = HIPK1 (human) (UniProt Q86Z02)
HIPK2 (human) = HIPK2 (human) (UniProt Q9H2X6)
IRAK1 (human) = IRAK1 (human) (UniProt P51617)
LTK (human) = LTK (human) (UniProt P29376)
MAP3K5 (human) = MAP3K5 (human) (UniProt Q99683)
MAPK1 (human) = MAPK1 (human) (UniProt P28482)
MARK2 (human) = MARK2 (human) (UniProt Q7KZI7)
MST1R (human) = MST1R (human) (UniProt Q04912)
MYO3B (human) = MYO3B (human) (UniProt Q8WXR4)
NEK3 (human) = NEK3 (human) (UniProt P51956)
NEK4 (human) = NEK4 (human) (UniProt P51957)
NEK6 (human) = NEK6 (human) (UniProt Q9HC98)
NEK7 (human) = NEK7 (human) (UniProt Q8TDX7)
PRKCB1 (human) = PRKCB1 (human) (UniProt P05771)
PRKCI (human) = PRKCI (human) (UniProt P41743)
PRKD2 (human) = PRKD2 (human) (UniProt Q9BZL6)
PTK6 (human) = PTK6 (human) (UniProt Q13882)
RPS6KB1 (human) = RPS6KB1 (human) (UniProt P23443)
SRMS (human) = SRMS (human) (UniProt Q9H3Y6)
STK25 (human) = STK25 (human) (UniProt O00506)
SYK (human) = SYK (human) (UniProt P43405)
TAOK1 (human) = TAOK1 (human) (UniProt Q7L7X3)
ULK2 (human) = ULK2 (human) (UniProt Q8IYT8)
CAMK1G (human) = CAMK1G (human) (UniProt Q96NX5)
MAPK8 (human) = MAPK8 (human) (UniProt P45983)

Chain of NEK6 (human) (Q9HC98 whole entry, looked up): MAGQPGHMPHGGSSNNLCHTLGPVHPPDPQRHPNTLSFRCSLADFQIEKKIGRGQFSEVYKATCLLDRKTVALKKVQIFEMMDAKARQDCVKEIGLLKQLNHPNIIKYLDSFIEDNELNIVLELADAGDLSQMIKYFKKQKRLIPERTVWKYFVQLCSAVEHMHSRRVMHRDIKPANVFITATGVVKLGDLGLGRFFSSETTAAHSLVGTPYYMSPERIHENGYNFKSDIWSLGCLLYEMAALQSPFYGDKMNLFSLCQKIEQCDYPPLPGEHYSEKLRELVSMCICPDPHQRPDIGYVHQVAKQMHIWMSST
Chain of CDK5 CDK5R1 p25 (human) (Q00535 whole entry, looked up): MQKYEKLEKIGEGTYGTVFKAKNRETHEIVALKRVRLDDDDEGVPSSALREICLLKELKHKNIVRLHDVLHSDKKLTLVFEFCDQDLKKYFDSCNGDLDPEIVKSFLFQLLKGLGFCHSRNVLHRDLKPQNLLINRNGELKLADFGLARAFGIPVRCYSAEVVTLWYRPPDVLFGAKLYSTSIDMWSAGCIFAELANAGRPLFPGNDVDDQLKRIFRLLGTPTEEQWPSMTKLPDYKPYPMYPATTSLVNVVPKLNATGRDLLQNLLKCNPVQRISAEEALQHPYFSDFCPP
Chain of CDK5 CDK5R1 p25 (human) (Q15078 whole entry, looked up): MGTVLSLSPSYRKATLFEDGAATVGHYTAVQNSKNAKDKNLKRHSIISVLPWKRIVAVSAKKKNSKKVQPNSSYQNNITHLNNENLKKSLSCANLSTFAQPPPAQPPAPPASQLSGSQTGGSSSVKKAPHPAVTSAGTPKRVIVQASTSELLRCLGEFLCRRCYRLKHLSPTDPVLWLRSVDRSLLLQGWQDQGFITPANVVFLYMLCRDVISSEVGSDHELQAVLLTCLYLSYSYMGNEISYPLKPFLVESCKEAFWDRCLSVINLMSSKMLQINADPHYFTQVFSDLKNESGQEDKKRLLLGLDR
Chain of DDR2 (human) (Q16832 whole entry, looked up): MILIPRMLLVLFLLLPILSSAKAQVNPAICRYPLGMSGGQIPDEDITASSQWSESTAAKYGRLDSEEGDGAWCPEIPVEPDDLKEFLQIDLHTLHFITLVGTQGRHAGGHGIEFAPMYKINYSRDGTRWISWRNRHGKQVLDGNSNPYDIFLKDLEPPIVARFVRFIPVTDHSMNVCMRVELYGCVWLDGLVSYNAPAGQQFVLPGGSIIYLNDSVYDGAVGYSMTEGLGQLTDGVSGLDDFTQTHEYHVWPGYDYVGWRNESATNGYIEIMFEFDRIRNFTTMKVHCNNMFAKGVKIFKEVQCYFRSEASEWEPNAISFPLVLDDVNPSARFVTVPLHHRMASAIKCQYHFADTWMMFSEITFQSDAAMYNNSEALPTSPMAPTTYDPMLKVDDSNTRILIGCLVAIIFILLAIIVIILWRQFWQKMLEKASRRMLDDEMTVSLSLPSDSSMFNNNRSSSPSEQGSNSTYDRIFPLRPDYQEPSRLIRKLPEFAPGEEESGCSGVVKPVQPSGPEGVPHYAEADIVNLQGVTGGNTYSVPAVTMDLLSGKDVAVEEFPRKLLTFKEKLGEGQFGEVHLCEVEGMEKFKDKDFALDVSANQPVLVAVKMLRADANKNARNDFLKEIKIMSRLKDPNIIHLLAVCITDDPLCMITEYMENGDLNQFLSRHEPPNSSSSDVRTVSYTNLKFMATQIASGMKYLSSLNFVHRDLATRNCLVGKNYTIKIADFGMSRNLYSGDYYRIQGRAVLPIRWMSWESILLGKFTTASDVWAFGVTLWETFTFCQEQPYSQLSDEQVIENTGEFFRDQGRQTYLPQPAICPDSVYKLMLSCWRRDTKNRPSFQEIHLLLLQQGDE
Chain of CSNK2A1 (human) (P68400 whole entry, looked up): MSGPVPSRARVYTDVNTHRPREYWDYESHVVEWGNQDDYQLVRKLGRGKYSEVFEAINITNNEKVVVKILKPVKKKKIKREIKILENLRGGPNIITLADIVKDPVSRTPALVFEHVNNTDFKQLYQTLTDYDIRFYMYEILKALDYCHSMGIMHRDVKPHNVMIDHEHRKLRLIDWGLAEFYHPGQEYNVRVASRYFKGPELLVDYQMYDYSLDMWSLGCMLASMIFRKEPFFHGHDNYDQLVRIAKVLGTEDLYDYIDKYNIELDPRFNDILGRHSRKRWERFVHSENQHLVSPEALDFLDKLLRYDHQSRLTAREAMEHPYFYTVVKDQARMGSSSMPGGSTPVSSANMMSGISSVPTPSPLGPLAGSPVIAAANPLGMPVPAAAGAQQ
Chain of SRMS (human) (Q9H3Y6 whole entry, looked up): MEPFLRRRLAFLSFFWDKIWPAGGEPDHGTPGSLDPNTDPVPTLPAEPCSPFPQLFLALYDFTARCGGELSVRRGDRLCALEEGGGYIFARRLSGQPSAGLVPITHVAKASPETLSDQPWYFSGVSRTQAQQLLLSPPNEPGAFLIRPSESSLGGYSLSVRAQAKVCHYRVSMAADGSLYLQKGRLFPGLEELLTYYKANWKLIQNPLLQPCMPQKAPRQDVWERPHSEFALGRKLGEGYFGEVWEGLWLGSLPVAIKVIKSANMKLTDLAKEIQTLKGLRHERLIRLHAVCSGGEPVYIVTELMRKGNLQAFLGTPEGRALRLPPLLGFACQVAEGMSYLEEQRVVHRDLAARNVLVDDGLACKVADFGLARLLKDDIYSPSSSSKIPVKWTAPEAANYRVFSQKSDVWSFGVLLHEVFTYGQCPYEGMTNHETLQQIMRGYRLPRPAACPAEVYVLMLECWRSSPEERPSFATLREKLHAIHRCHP
Chain of TAOK1 (human) (Q7L7X3 whole entry, looked up): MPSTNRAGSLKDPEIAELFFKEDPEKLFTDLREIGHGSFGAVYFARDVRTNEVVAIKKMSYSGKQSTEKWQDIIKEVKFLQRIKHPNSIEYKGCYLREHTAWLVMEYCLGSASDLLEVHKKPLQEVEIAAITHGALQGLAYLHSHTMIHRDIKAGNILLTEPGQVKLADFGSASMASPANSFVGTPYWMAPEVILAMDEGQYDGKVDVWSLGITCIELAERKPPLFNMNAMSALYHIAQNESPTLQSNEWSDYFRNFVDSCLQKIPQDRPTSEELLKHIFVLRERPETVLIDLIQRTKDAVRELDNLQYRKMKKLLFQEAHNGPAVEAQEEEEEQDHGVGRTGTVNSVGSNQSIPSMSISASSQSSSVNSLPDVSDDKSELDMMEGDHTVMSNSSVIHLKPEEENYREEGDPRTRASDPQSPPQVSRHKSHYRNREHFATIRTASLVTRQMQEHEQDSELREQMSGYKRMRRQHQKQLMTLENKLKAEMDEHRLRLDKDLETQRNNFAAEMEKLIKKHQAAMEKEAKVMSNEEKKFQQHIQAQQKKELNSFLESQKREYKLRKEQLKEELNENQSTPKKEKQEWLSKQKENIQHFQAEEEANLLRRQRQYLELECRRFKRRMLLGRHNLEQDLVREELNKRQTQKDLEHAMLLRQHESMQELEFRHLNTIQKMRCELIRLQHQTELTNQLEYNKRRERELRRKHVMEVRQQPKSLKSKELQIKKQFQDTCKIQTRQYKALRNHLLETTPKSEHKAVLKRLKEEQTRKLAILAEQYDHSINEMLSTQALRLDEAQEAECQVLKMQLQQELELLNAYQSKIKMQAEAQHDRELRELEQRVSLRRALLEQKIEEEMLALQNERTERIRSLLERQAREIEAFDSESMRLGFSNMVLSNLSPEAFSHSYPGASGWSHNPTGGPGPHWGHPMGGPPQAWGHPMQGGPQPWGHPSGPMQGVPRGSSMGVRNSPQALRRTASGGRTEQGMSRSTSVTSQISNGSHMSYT
Chain of NEK4 (human) (P51957 whole entry, looked up): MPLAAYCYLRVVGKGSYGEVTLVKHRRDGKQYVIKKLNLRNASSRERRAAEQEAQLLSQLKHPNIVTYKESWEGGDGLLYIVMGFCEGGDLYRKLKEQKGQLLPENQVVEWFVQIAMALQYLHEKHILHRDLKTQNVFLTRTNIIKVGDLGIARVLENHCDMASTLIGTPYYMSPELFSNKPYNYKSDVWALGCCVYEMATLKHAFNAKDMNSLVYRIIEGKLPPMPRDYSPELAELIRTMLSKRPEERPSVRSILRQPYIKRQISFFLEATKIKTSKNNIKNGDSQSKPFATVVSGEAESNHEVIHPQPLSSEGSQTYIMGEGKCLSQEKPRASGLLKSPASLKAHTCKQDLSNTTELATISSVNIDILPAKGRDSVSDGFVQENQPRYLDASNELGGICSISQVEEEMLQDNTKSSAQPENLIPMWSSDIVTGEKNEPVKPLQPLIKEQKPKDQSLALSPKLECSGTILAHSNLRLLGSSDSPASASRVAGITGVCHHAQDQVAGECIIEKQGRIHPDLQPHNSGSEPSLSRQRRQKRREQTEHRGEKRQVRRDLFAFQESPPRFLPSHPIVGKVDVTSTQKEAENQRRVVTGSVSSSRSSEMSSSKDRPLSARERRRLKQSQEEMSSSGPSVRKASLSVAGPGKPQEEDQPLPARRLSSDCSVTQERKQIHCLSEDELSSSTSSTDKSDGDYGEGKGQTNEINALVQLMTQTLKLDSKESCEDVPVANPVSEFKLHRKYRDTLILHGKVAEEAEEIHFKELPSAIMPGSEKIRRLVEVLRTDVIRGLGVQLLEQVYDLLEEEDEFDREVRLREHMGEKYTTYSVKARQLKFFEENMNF
Chain of CAMK2D (human) (Q13557 whole entry, looked up): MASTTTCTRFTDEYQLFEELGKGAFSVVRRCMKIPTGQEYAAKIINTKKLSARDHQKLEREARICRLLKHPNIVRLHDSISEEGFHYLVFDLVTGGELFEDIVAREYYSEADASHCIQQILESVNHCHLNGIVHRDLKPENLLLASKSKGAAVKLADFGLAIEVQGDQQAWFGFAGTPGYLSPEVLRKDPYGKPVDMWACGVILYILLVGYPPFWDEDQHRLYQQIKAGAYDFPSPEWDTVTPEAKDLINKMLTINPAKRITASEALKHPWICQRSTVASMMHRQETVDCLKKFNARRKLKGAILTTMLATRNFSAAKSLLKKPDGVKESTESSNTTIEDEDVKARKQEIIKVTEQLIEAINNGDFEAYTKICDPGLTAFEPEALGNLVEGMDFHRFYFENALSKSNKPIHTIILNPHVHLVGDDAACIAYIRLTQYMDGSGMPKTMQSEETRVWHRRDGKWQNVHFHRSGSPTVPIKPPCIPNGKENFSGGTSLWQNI

Cc1ccc(Nc2nccc(N(C)c3ccc4c(C)n(C)nc4c3)n2)cc1S(N)(=O)=O
residual activity (ACVR1 (human)): 104%
residual activity (BRSK1 (human)): 97.2%
residual activity (CAMK1 (human)): 87.4%
residual activity (CAMK2D (human)): 99.4%
residual activity (CDK5 CDK5R1 p25 (human)): 95.1%
residual activity (CHUK (human)): 99.4%
residual activity (CSNK1G1 (human)): 100%
residual activity (CSNK2A1 (human)): 114%
residual activity (DAPK1 (human)): 105%
residual activity (DDR2 (human)): 36.2%
residual activity (EPHA1 (human)): 85%
residual activity (EPHA2 (human)): 85.7%
residual activity (EPHA3 (human)): 94.1%
residual activity (EPHA7 (human)): 94.1%
residual activity (EPHB1 (human)): 92.2%
residual activity (FER (human)): 81.3%
residual activity (GRK6 (human)): 102%
residual activity (HIPK1 (human)): 97.6%
residual activity (HIPK2 (human)): 105%
residual activity (IRAK1 (human)): 97%
residual activity (LTK (human)): 80.2%
residual activity (MAP3K5 (human)): 102%
residual activity (MAPK1 (human)): 103%
residual activity (MARK2 (human)): 111%
residual activity (MST1R (human)): 97.8%
residual activity (MYO3B (human)): 83.4%
residual activity (NEK3 (human)): 94.2%
residual activity (NEK4 (human)): 91.1%
residual activity (NEK6 (human)): 96.1%
residual activity (NEK7 (human)): 101%
residual activity (PRKCB1 (human)): 91%
residual activity (PRKCI (human)): 96.1%
residual activity (PRKD2 (human)): 90.8%
residual activity (PTK6 (human)): 66.2%
residual activity (RPS6KB1 (human)): 96%
residual activity (SRMS (human)): 115%
residual activity (STK25 (human)): 97.3%
residual activity (SYK (human)): 101%
residual activity (TAOK1 (human)): 28.9%
residual activity (ULK2 (human)): 102%

CC(C)N(CCC(=O)c1ccc2ccccc2c1)Cc1ccccc1
residual activity (ACVR1 (human)): 93.6%
residual activity (BRSK1 (human)): 98%
residual activity (CAMK1 (human)): 104%
residual activity (CAMK1G (human)): 95.1%
residual activity (CAMK2D (human)): 90%
residual activity (CDK5 CDK5R1 p25 (human)): 96.5%
residual activity (CHUK (human)): 96.4%
residual activity (CSNK1G1 (human)): 101%
residual activity (CSNK2A1 (human)): 98.1%
residual activity (DAPK1 (human)): 97.9%
residual activity (DDR2 (human)): 92.5%
residual activity (EPHA1 (human)): 92.4%
residual activity (EPHA3 (human)): 85%
residual activity (EPHA7 (human)): 106%
residual activity (EPHB1 (human)): 96.8%
residual activity (FER (human)): 105%
residual activity (GRK6 (human)): 87.1%
residual activity (HIPK1 (human)): 106%
residual activity (HIPK2 (human)): 107%
residual activity (IRAK1 (human)): 102%
residual activity (LTK (human)): 103%
residual activity (MAP3K5 (human)): 103%
residual activity (MAPK1 (human)): 87.4%
residual activity (MAPK8 (human)): 88%
residual activity (MARK2 (human)): 97.9%
residual activity (MST1R (human)): 92.6%
residual activity (MYO3B (human)): 93.5%
residual activity (NEK3 (human)): 101%
residual activity (NEK4 (human)): 95.7%
residual activity (NEK6 (human)): 109%
residual activity (NEK7 (human)): 95.2%
residual activity (PRKCB1 (human)): 92.6%
residual activity (PRKCI (human)): 97.1%
residual activity (PRKD2 (human)): 98.5%
residual activity (PTK6 (human)): 96.4%
residual activity (RPS6KB1 (human)): 97.2%
residual activity (SRMS (human)): 103%
residual activity (STK25 (human)): 94%
residual activity (SYK (human)): 101%
residual activity (TAOK1 (human)): 94.9%
residual activity (ULK2 (human)): 113%

c1ccc(-c2n[nH]cc2-c2ccnc3ccccc23)nc1
residual activity (ACVR1 (human)): 106%
residual activity (BRSK1 (human)): 99%
residual activity (CAMK1 (human)): 96.1%
residual activity (CAMK1G (human)): 102%
residual activity (CAMK2D (human)): 101%
residual activity (CDK5 CDK5R1 p25 (human)): 97.2%
residual activity (CHUK (human)): 94.2%
residual activity (CSNK1G1 (human)): 92.2%
residual activity (CSNK2A1 (human)): 96.3%
residual activity (DAPK1 (human)): 111%
residual activity (DDR2 (human)): 95.1%
residual activity (EPHA1 (human)): 97.7%
residual activity (EPHA2 (human)): 103%
residual activity (EPHA3 (human)): 99.3%
residual activity (EPHA7 (human)): 91.4%
residual activity (EPHB1 (human)): 98.7%
residual activity (FER (human)): 86%
residual activity (GRK6 (human)): 94.6%
residual activity (HIPK1 (human)): 99.9%
residual activity (HIPK2 (human)): 91.3%
residual activity (IRAK1 (human)): 124%
residual activity (LTK (human)): 92.8%
residual activity (MAP3K5 (human)): 105%
residual activity (MAPK1 (human)): 108%
residual activity (MARK2 (human)): 102%
residual activity (MST1R (human)): 99.9%
residual activity (MYO3B (human)): 91.7%
residual activity (NEK3 (human)): 90.2%
residual activity (NEK4 (human)): 95.8%
residual activity (NEK6 (human)): 106%
residual activity (NEK7 (human)): 102%
residual activity (PRKCB1 (human)): 102%
residual activity (PRKCI (human)): 99%
residual activity (PRKD2 (human)): 66.9%
residual activity (PTK6 (human)): 70.9%
residual activity (RPS6KB1 (human)): 106%
residual activity (SRMS (human)): 105%
residual activity (STK25 (human)): 96.9%
residual activity (SYK (human)): 99.7%
residual activity (TAOK1 (human)): 93%
residual activity (ULK2 (human)): 95.6%
